We go through four compounds from patent publication US20050282824A1, “Substituted pyrimidines as inhibitors of bacterial type III protein secretion systems” (priority 2004, published 2005).

What all share (format): cell-based
The subject of assay [1] is Type III protein secretion of ExoU by P. aeruginosa PA103. The assay can be described thus: Tertiary assay: Type III-dependent secretion of ExoU by P. aeruginosa PA103. The following applies: Pseudomonas aeruginosa, read-out: ExoU IC50(uM). Summed up: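 PA103 grown in deferrated medium with nitrilotriacetic acid to induce Type III secretion, with or without inhibitor, over a prolonged growth period. Supernatant proteins concentrated by ammonium sulfate precipitation, separated by SDS-PAGE, Colloidal Blue-stained; 73.9 kDa ExoU band quantified by imaging relative to untreated controls.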

Assay [2] has as its system SPI1 type III protein secretion of SopE'-'Bla by Salmonella enterica. The assay can be described thus: Primary assay: Type III protein secretion of the chimeric SopE'-'Bla polypeptide by Salmonella enterica. Conditions: read-out: SopE IC50(uM). An outline of the steps: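 S. enterica grown under SPI1-favouring conditions was induced to express SopE′-′Bla (SopE secretion signal fused to signal-less TEM-1 β-lactamase) and cultured with or without compound for a set time. Secreted reporter was quantified by colorimetric hydrolysis of cell-impermeant nitrocefin added to the cultures.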

The subject of assay [3] is SPI1 type III protein secretion of SipB by S. enterica. The assay can be described thus: Secondary assay: Type III-dependent protein secretion of the SipB polypeptide by S. enterica. The following applies: Salmonella enterica, read-out: SipB IC50(uM). An outline of the steps:
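S. enterica cultured with or without inhibitor and induced for SipB production; after growth, cells pelleted and secreted SipB in supernatant measured by immunoblot with anti-SipB mouse monoclonal plus HRP anti-mouse and chemiluminescence, quantified by scanning imager. Inhibition expressed relative to untreated controls.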

Consider `O=C(NC(Cc1ccc(Cl)cc1)C(=O)O)c1cc(N2CCN(c3nccc(C(F)(F)F)n3)CC2)nc(-c2ccc([N+](=O)[O-])cc2)n1` (stereo not drawn) [Compound 53, 3-(4-Chlorophenyl)-2-({2-(4-nitrophenyl)-6-[4-(4-trifluoromethylpyrimidin-2-yl)-piperazin-1-yl]pyrimidine-4-carbonyl}amino)propionic acid], for which the IC50 in assay [1] is 40.4 µM; in assay [2], 1.2 µM; in assay [3] it was 84.6 µM.
The matching figures for `O=C(NC(Cc1ccc(Cl)cc1)C(=O)O)c1cc(N2CCN(c3nccc(C(F)(F)F)n3)CC2)nc(-c2ccc(F)cc2)n1` (stereo not drawn) [Compound 56, 3-(4-Chlorophenyl)-2-({2-(4-fluorophenyl)-6-[4-(4-trifluoromethylpyrimidin-2-yl)-piperazin-1-yl]pyrimidine-4-carbonyl}amino)propionic acid]: 55.4 µM, 2.2 µM and 4.5 µM.
The matching figures for `O=C(N[C@@H](COCc1ccccc1)C(=O)O)c1cc(N2CCN(c3nccc(C(F)(F)F)n3)CC2)nc(-c2ccoc2)n1` [Compound 60, (S)-3-Benzyloxy-2-({2-furan-3-yl-6-[4-(4-trifluoromethylpyrimidin-2-yl)piperazin-1yl]-pyrimidine-4-carbonyl}amino)propionic acid]: above 100 µM, 16.4 µM and 15.6 µM.
As for `O=C(N[C@@H](CSCc1ccccc1)C(=O)O)c1cc(N2CCN(c3nccc(C(F)(F)F)n3)CC2)nc(-c2ccoc2)n1` [Compound 61, (R)-3-Benzylsulfanyl-2-({2-furan-3-yl-6-[4-(4-trifluoromethylpyrimidin-2-yl)-piperazin-1-yl]pyrimidine-4-carbonyl}amino)propionic acid], the IC50 in assay [1] was above 100 µM; in assay [2], 10.2 µM; in assay [3], 43.2 µM.

By IC50 is commonly meant the concentration needed to halve the response being measured.
